According to patent US20050214898A1, “Methods of carotenoid production in bacteria” (priority 2004, published 2005):
Values joined by “and” are separate entries in the source; they are usually repeats but may differ in a detail not shown here. Equal values may be shown once. “Also recorded” adds a separate entry of the source.

Assays:
[1] = system: F. multivorum ATCC 55238; test: Effect of salt supplementation of the basal medium on growth and carotenoid production (shake flask); assay type: cell-based, Flavobacterium multivorum; conditions: for effect on growth: basal medium supplemented with salt; for effect on the volumetric production of β-carotene / β-carotene as proportion of the total carotenoid content: basal medium supplemented with salt 250 mg/100 ml
Experimental: (§1) Pigment extraction from bacterial cells. One ml of culture broth was centrifuged at 5000 rpm for 10 min at 4° C. The supernatant was discarded and media components of the cell pellet were washed away by repeated suspension in sterile distilled water and centrifugation. The cell mass was subjected to sonication using a sonic dismembrator (Fisher Scientific, Model number F60) in the presence of 1 ml cold, oxygen-free methanol containing 0.01% butylated hydroxy toluene (BHT) (w/v) for 30 seconds (output power 5). Methanol extraction was repeated for complete extraction of carotenoids. The sonicated sample was centrifuged to remove the white cell pellet. The supernatant contains extracted carotenoids.
High performance liquid chromatography (HPLC). The pigments in methanol were dried by vacuum evaporation in a Speedvac Plus (SC 110, Savant) and re-dissolved in one ml of HPLC mobile phase (hexane: dichloromethane: methanol: N,N′-di-isopropylethylamine (80:19.2:0.7:0.1 v/v)). HPLC separation was carried out at a flow rate of 1.0 ml min^−1 on a cyano column (Microsorb 25 cm length×4.6 mm id, Rainin Instrument Co. Woburn, Mass., U.S.A.). The column was maintained at room temperature and the HPLC detector was operated at 450 nm. Peak identities were confirmed by photodiode-array spectra and by coelution with authentic standards as necessary.
Cell growth measurement. Cell growth was monitored by measurement of turbidity at […] with a UV-visible spectrophotometer (Smart Spec™ 3000, BioRad). Samples were suitably diluted (so as to have absorbance of between 0.2 to 0.8) with double distilled water. The absorbance was measured immediately at 500 nm. For cell dry weight (CDW) estimation, the 10 ml sample was centrifuged at 10,000 g for 10 minutes and washed twice with double distilled water by suspension and centrifugation. The supernatant was discarded and the cell pellet was taken to constant weight in an oven at 80° C.
Effect of salt supplementation. F. multivorum was studied for growth and carotenoid production in the liquid basal medium supplemented with the salts listed in Table 1 (see, FIG. 7) (250 mg/100 ml) to evaluate the effect of mineral salts. The F. multivorum cultures were grown in quadruplicate in shake flask cultures at 30° C. on a rotary shaker rotates at 250 rpm.

[2] = system: F. multivorum; test: Effect of TCA cycle intermediates in the growth medium on zeaxanthin production; assay type: cell-based, Flavobacterium multivorum; conditions: growth medium supplemented with TCA intermediate
Experimental: as §1
High performance liquid chromatography (HPLC). The pigments in methanol were dried by vacuum evaporation in a Speedvac Plus (SC 110, Savant) and re-dissolved in one ml of HPLC mobile phase (hexane: dichloromethane: methanol: N,N′-di-isopropylethylamine (80:19.2:0.7:0.1 v/v)). HPLC separation was carried out at a flow rate of 1.0 ml min^−1 on a cyano column (Microsorb 25 cm length×4.6 mm id, Rainin Instrument Co. Woburn, Mass., U.S.A.). The column was maintained at room temperature and the HPLC detector was operated at 450 nm.
Media optimization for zeaxanthin production.

[Cl-].[Li+] [Lithium chloride]
maximum β-carotene level (proportion of total carotenoid) ([1]; at 24 h of growth phase): 44 %, w/w
β-carotene level (proportion of total carotenoid) ([1]; end of fermentation (48 h)): 21 % (w/w)

[Ca+2].[Cl-].[Cl-] [calcium chloride]
effect on growth [1]: minor inhibition on growth
effect on the volumetric production of β-carotene [1]: maximum stimulatory effect
β-carotene as proportion of the total carotenoid content [1]: 52 % (w/w)

O=C(O)CC(C(=O)O)C(O)C(=O)O (stereo not drawn) [Isocitric acid, isocitric acid]
effect on the volumetric production of zeaxanthin [2]: maximum stimulatory effect

O=C(O)CC(O)C(=O)O (stereo not drawn) [malic acid]
effect on the volumetric production of zeaxanthin [2]: maximum stimulatory effect

NC(N)=O [Urea, urea]
effect on growth [1]: minor inhibition on growth
effect on the volumetric production of β-carotene [1]: maximum stimulatory effect
β-carotene as proportion of the total carotenoid content [1]: 66 % (w/w)
effect on the volumetric production of β-carotene ([1]; listed as urea): positive effect
β-carotene as proportion of the total carotenoid content ([1]; listed as urea): 70 % (w/w)

O=C([O-])[O-].[Na+].[Na+] [sodium carbonate]
effect on growth [1]: minor inhibition on growth
effect on the volumetric production of β-carotene [1]: positive effect; also recorded: maximum stimulatory effect
β-carotene as proportion of the total carotenoid content [1]: 70 % (w/w) and 69 % (w/w)
